These results are taken from patent EP1551873B1, “AGONISTS AND ANTAGONISTS OF THE HUMAN ODORANT RECEPTOR OR17-4 AND USES THEREOF” (Symrise AG, priority 2002, dated 2004).

For experiment [1], the target named is T1, hOR17-40 (Homo sapiens, UniProt P47881).
T1 construct: pOR17-40 (Ausschnitt) mit der vollständigen cDNA von hOR17-40; expressed in transfected cells; host or cells: HEK293, plasmid pOR17-40
T1 sequence (P47881 1-315): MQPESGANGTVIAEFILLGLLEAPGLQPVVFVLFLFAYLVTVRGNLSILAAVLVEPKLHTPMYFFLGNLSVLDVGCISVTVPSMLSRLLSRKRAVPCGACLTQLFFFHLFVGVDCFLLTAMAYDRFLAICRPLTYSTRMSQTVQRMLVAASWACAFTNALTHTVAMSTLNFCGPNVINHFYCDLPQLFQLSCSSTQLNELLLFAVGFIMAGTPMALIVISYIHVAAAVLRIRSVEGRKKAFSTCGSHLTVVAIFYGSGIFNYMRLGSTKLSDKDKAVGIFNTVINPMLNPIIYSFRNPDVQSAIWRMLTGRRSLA
Kind of experiment: Ca2+ imaging of HEK293 cells transfected with pOR17-40. It is filed as cell-based. The note with it: n=168.

In the next experiment the test system is hOR17-4. The experiment can be described thus: Ca2+ imaging (Fura-2) of HEK293 cells transiently transfected with pOR17-4 (chimeric receptor). It is filed as cell-based, human. The note with it: for Rezeptoraktivierung (Ca^2+-Antwort): single odorant about 500 µM, pOR17-4-transfected HEK293 cells; for Wirksamkeit (Rangordnung der Agonisten): ranking by amplitude normalised to ATP and by responding cells relative to Cyclamal ca. 5 mM. The source says: Es wird vermutet, dass die Transmembrandomänen III-VI eine Bindungstasche zum Binden von Agonisten bilden (s. S. Firestein, Nature 413, 211-218 (2001)). Um diese Vermutung für den Rezeptor hOR17-4 zu überprüfen wurde ein für die vermuteten Transmembrandomänen III bis VI codierender Abschnitt der für hOR17-4 codierenden cDNA in einem Shuttle-Expressions-Vektor (pOLF-Express) kloniert. Der Expressionsvektor pOLF-Express umfasst die für die N- und C-terminalen Regionen von hOR17-40 codierenden DNA-Abschnitte (C. H. Wetzel et al., Journal of Neuroscience 19, 7426-7433 (1999)). Das resultierende chimäre Rezeptorprotein sollte die Agonistenspezifität des vollständigen Rezeptors hOR17-4 besitzen.
HEK293-Zellen wurden in MEM (Life Technologies, Gaithersburg, MD), das mit 10 % hitze-inaktiviertem fetalem Kälber-Serum angereichert war, in einem Inkubator bei 37 °C in einer Atmosphäre aus 95 % befeuchteter Luft und 5 % CO2 kultiviert. Semikonfluente Zellen wurden in 35 mm Gefäßen (Falcon) mittels Calciumphosphat-Präzipitation (Zufall et al., PNAS 90 (1993), 9335-9339) unter Verwendung jeweils des Plasmids pOR17-4 bzw. pOR17-4v transfiziert. Die Transfektionseffizienz - typischerweise 10 % - wurde histochemisch mit dem Reporterplasmid pCH110 (Pharmacia, Uppsala, Schweden) überprüft, das für β-Galactosidase codiert. Messungen wurden 48 bis 72 Stunden nach der Transfektion durchgeführt. Die Transfektionseffizienz kann mit einem für GFP, einem grün fluoreszierenden Protein, codierenden Reporterplasmid ebenfalls überprüft werden.
Die Rezeptor-Aktivierung in HEK293-Zellen führt zu einem vorübergehenden Anstieg der cytosolischen Ca^2+-Konzentration, die auf der Einzelzell-Ebene unter Verwendung des Ca^2+-sensitiven Farbstoffes Fura-2 (Fura-2 AM, Molecular Probes Europe BV, Leiden, Niederlande; Ladekonzentration 3-4 µg/ml; Ladezeit ca. 30 min) und ratiofluorometrischen Bildgebungstechniken (Imaging-Experimente) detektiert wurden.
Die Ca^2+-imaging-Experimente wurden auf dem Träger eines invertierten Zeiss-Mikroskopes durchgeführt, das für die ratiofluorometrische Bildgebung mit einer Xenon-Bogenlampe, einem Vielfach-Wellenlängen-Illuminations-System POLYCH-ROM II zur Anregung, einer gekühlten charge-coupled device (CCD)-Kamera und einer WinNT-basierten T.I.L.L.-Vision-Software zum Sammeln und raum- und zeitabhängigen Quantifizieren Ca^2+-abhängiger Fluoreszenz-Signale (F340/F380-Verhältnis) ausgestattet war. HEK293-Zellen wurden mit 32-facher, Spermazellen mit 63-facher Vergrößerung beobachtet.
HEK293- und Spermazellen wurden unter Verwendung eines speziellen Applikations-Systems, das es gestattete, vorübergehend alle Zellen im Blickfeld aus einem von sechs benutzergewählten Kapillarröhrchen zu überspülen, Geruchs- und/oder Wirkstoffen (Testlösungen) ausgesetzt. Der Wechsel zwischen den Testlösungen erfolgte nahezu sofort; auch trat im Wesentlichen keine Wirkungsverzögerung nach dem Wechsel auf, weil die Röhrchenspitzen zum optischen Feld eng benachbart waren. Zwischen den Applikationen von Testlösungen überspülte ein Pufferlösungsstrom kontinuierlich alle Zellen im Gefäß, um jedwede potentielle Hintergrund-Anreicherung von Testlösungen (Geruchs- bzw. Wirkstoffen) zu minimieren. Alle Lösungen wurden bei Raumtemperatur appliziert. Alle verwendeten Geruchsstoffe stammten von Dr. T. Gerke, Henkel KGaA, Düsseldorf, FRG, andere Wirkstoffe wurden von Sigma gekauft. Zur Zusammensetzung der Henkel 100-Mischung vergleiche C. H. Wetzel et al., Journal of Neuroscience 19, 7426-7433 (1999).
Alle auf die potentielle Aktivierung von hOR17-4 untersuchten Geruchsstoffe wurden wenigstens in drei verschiedenen Reihen von Transfektionsexperimenten getestet. […] Geruchsstoffe, die nicht in wenigstens 2 % aller HEK293-Zellen messbare Ca^2+-Konzentrationssteigerung auslösten, wurden nicht zu den hOR17-4-spezifischen Agonisten gezählt, ebenso diejenigen wenigen der untersuchten Komponenten, die ein unspezifisches Ca^2+-Signal in fast jeder Zelle hervorriefen. […]

Experiment [2] has as its target T1, hOR17-40. The note with it: literature (Wetzel et al. 1999), HEK293; cited from earlier work.
The target in another experiment is T2, Ratten-I7-Rezeptor (Rattus norvegicus, UniProt P23270).
T2 sequence (P23270 1-327): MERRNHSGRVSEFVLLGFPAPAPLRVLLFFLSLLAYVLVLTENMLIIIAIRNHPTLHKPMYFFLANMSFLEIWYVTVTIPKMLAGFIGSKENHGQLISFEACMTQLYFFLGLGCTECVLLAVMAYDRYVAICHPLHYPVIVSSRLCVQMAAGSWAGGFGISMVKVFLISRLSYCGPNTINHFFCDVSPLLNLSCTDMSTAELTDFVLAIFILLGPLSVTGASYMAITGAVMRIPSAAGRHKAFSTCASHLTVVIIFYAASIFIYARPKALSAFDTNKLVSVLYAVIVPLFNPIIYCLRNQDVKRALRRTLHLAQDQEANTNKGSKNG
The note with it: cited from earlier work.

Experiment [3] has as its system olfaktorische Rezeptor OR5. The settings on record: receptor expressed in E. coli; cited from earlier work.
A further experiment has as its system Spermien. Kind of experiment: Signal transduction inhibitors on bourgeonal response of sperm (chemotaxis and swimming speed). The settings on record: inhibitor 50 µM, Bourgeonal 100 nM. It is filed as cell-based, human. The procedure: Gefrorene Samenproben von fünf gesunden Spendern wurden aus der California Cryobank (Los Angeles, CA, USA) erhalten und für Bioassays gemäß den World Health Organization-Richtlinien (World Health Organization: Laboratory for the examination of human serum and semen-cervical mucus interaction, Cambridge University Press (1993)) vorbereitet (vgl. vorheriges Beispiel und Beispiel 7). Bevor oder während die Spermien mit Bourgeonal (100 nM) behandelt wurden, wurden sie jeweils (a) mit Adenylatcyclase-Inhibitor (MDL-12,330A, 50 µM) und (b) mit einem Phospholipase C-Inhibitor (U73122, 50 µM) behandelt.

Consider `CC(C=O)Cc1ccc2c(c1)OCO2` (centres unmarked) [Helional, reference compound], for which the “vorübergehende Erhöhung des cytosolischen Ca^2+-Spiegels, Anteil aller getesteten Zellen” value at hOR17-40 [1] is given as 2 - 5%. Also, the “Rezeptoraktivierung (Ca^2+-Antwort)” value with hOR17-4 is “keiner Rezeptoraktivierung”. The “Agonist (Aktivierung des Rezeptors, Erhöhung des cytosolischen Ca^2+-Spiegels)” value at hOR17-40 [2] is on record as “als Agonisten wirkende Substanzen”.
Turning to `CCCCCCCC=O` [Octanal, reference compound], the “Rezeptoraktivierung (Ca^2+-Antwort)” value in the experiment with hOR17-4 is given as “nicht aktiviert”. The “Stimulation des Rezeptors” value on Ratten-I7-Rezeptor is recorded as “stimuliert”.
`COc1ccc(CC(C)C=O)cc1` (centres unmarked) [Canthoxal]: the “Induktion einer Ca^2+-Konzentrationssteigerung” value in the experiment with hOR17-4 (agonist concentration reduced to 10^-6 M) is recorded as “zu einem gewissen Ausmaß”. Further, in the experiment on hOR17-4, the “Wirksamkeit (Rangordnung der Agonisten)” value was “wirksamere Agonisten” and the “Rezeptoraktivierung (Ca^2+-Antwort)” value is “klare Ca^2+-Antworten”.
`CC(C=O)Cc1ccc(C(C)(C)C)cc1` (centres unmarked) [Lilial, reference compound]: the “spezifische Bindung” value in experiment [3] was “spezifische Bindung”. Further, in the experiment with hOR17-4, the “Wirksamkeit (Rangordnung der Agonisten)” value is listed as “wirksamere Agonisten” and the “Rezeptoraktivierung (Ca^2+-Antwort)” value is listed as “Fähigkeit der Substanzen, den Rezeptor zu aktivieren”.
Regarding `COc1ccc2c(c1)CC[C@@H]1[C@@H]2CC[C@]2(C)[C@@H](NCCCCCCN3C(=O)C=CC3=O)CC[C@@H]12` [U73122], the “Änderung des Spermienverhaltens” value in the experiment with Spermien is reported as “keine Änderung des Spermienverhaltens”.
Turning to `CC(=O)CCc1ccc2c(c1)OCO2` [Heliotropylaceton], the “Agonist (Aktivierung des Rezeptors, Erhöhung des cytosolischen Ca^2+-Spiegels)” value on hOR17-40 [2] is recorded as “als Agonisten wirkende Substanzen”.
On to `CC(CC=O)c1ccccc1` (centres unmarked) [3-PBA, 3-Phenylbutyraldehyd], for which, in the experiment on hOR17-4, the “eine Ca^2+-Reaktion nicht mehr auslösender Schwellenwert” value is around 50 µM and the “Rezeptoraktivierung (Ca^2+-Antwort)” value is “klaren Ca^2+-Antworten”.
`O=CCc1ccccc1` [Phenylacetaldehyd]: in the experiment with hOR17-4, the “Rezeptoraktivierung (Ca^2+-Antwort)” value is reported as “deutliche Ca^2+-Signale”.
Still for that read-out and setting: then `O=C(O)CCc1ccccc1` [3-Phenylpropionsäure, reference compound], with “aktivierten den Rezeptor nicht”.
On the same count and under the same terms, then `O=CCCCCc1ccccc1` [5-Phenylvaleraldehyd, reference compound], with “keine messbare Antwort”.
Still for that read-out and setting: then `O=CCCCc1ccccc1` [4-Phenylbutylaldehyd, 4-Phenylbutyraldehyd], with “deutliche Ca^2+-Signale”.
Take `O=CC=Cc1ccccc1` [Cinnamaldehyd, reference compound]: the “Rezeptoraktivierung (Ca^2+-Antwort)” value in the experiment on hOR17-4 was “vollständig inaktiv”.
On to `Cl.c1ccc(C2CCCC2NC2=NCCCCCCCCCCC2)cc1` (centres unmarked) [MDL-12,330A], for which, in the experiment with Spermien (missing chemotaxis and missing change of swimming speed), the “Anteil der bourgeonal-responsiven Spermien, die nicht mehr auf Bourgeonal reagierten” value was found to be 72%.
`CC(CCO)c1ccccc1` (centres unmarked) [3-Phenylbutylalkohol, reference compound]: in the experiment on hOR17-4, the “Rezeptoraktivierung (Ca^2+-Antwort)” value is listed as “aktivierten den Rezeptor nicht”.
On the same count and under the same terms, then `CC=Cc1ccc(OC)cc1` [Anethol, reference compound], with “aktivierten den Rezeptor nicht”; and `O=Cc1ccccc1` [Benzaldehyd, reference compound], with “keine messbare Antwort”; and `O=CCCc1ccccc1` [3-Phenylpropanal], with “klaren Ca^2+-Antworten”.
Still for that read-out and setting: then `CC(C)c1ccccc1` [Isopropylbenzol, reference compound], with “induzierte keine Rezeptoraktivität”; and `CC(C)(C)c1ccc(OCC=O)cc1` [(4-tert-Butylphenoxy)acetaldehyd, (4-tert-butylphenoxy)acetaldehyd], with “erzeugte ein Ca^2+-Signal”.
The same measure, in the same setting: then Citrusal [reference compound], with “nicht aktivierenden”.
For `CCc1ccc(CC(C)(C)C=O)cc1` [Floralazon], in the experiment on hOR17-4, the “Rezeptoraktivierung (Ca^2+-Antwort)” value is “Fähigkeit der Substanzen, den Rezeptor zu aktivieren”.
Regarding `CC(C=O)Cc1ccc(C(C)C)cc1` (centres unmarked) [Cyclamal], in the experiment on hOR17-4, the “Wirksamkeit (Rangordnung der Agonisten)” value is “nicht der wirksamste Agonist” and the “Rezeptoraktivierung (Ca^2+-Antwort)” value is on record as “Agonist identifiziert”. The “Desensitisierung der Geruchsstoff-Antwort” value in the experiment on hOR17-4 (single application, most responsive cells, ATP response unchanged) is given as “vollständigen und langanhaltenden Desensitisierung”.
